How the values were obtained:
Type in all cases: in vivo
[1] = system: barnyardgrass (Echinochloa crus-galli); experiment: Test A pre-/postemergence: barnyardgrass; conditions: for Barnyardgrass plant response rating: Postemergence; for Plant response rating, Barnyardgrass: Preemergence
Outline: (§1)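 Plants in loam–sand blend were treated with test chemicals in non-phytotoxic solvent with surfactant, either as preemergence directed soil spray or postemergence at 2–10 cm, one- to two-leaf stage. After about ten days in greenhouse, injury was rated visually against untreated controls on a 0–100 scale (100 = complete control).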

[2] = system: crabgrass, large (large crabgrass, Digitaria sanguinalis); experiment: Test A pre-/postemergence: crabgrass, large; conditions: for Crabgrass, Large plant response rating: Postemergence; for Plant response rating, Crabgrass, Large: Preemergence
Outline: as §1

[3] = system: foxtail, giant (giant foxtail, Setaria faberii); experiment: Test A pre-/postemergence: foxtail, giant; conditions: for Foxtail, Giant plant response rating: Postemergence; for Plant response rating, Foxtail, Giant: Preemergence
Outline: as §1

[4] = system: morningglory (Ipomoea spp.); experiment: Test A pre-/postemergence: morningglory; conditions: for Morningglory plant response rating: Postemergence; for Plant response rating, Morningglory: Preemergence
Outline: as §1

[5] = system: pigweed (Amaranthus retroflexus); experiment: Test A pre-/postemergence: pigweed; conditions: for Pigweed plant response rating: Postemergence; for Plant response rating, Pigweed: Preemergence
Outline: as §1

[6] = system: velvetleaf (Abutilon theophrasti); experiment: Test A pre-/postemergence: velvetleaf; conditions: for Velvetleaf plant response rating: Postemergence; for Plant response rating, Velvetleaf: Preemergence
Outline: as §1

[7] = system: wheat (Triticum aestivum); experiment: Test A pre-/postemergence: wheat; conditions: for Wheat plant response rating: Postemergence; for Plant response rating, Wheat: Preemergence
Outline: as §1

corn (Zea mays) = experiment: Test A pre-/postemergence: corn; conditions: for Corn plant response rating: Postemergence; for Plant response rating, Corn: Preemergence
Outline: as §1

rice (Oryza sativa) = experiment: Test C flooded paddy test: rice; conditions: scale 0 to 100 (0 no effect, 100 complete control)
Outline: (§2)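 Plants were grown to the 2-leaf stage, pots flooded to 3 cm above soil, and test compounds applied directly to the paddy water, with that depth held throughout. After 13 to 15 days in a greenhouse, injury was visually rated against controls on a 0 (no effect) to 100 (complete control) scale.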

[8] = system: sedge, umbrella (small-flower umbrella sedge, Cyperus difformis); experiment: Test C flooded paddy test: sedge, umbrella; conditions: scale 0 to 100 (0 no effect, 100 complete control)
Outline: as §2

[9] = system: ducksalad (Heteranthera limosa); experiment: Test C flooded paddy test: ducksalad; conditions: scale 0 to 100 (0 no effect, 100 complete control)
Outline: as §2

[10] = system: barnyardgrass (Echinochloa crus-galli); experiment: Test C flooded paddy test: barnyardgrass; conditions: scale 0 to 100 (0 no effect, 100 complete control)
Outline: as §2

[11] = 125 g ai/ha, 0 to 100 scale, 0 is no effect, 100 is complete control
[12] = 500 g ai/ha, visual rating on 0 to 100 scale (0 no effect, 100 complete control), approximately ten days
[13] = 125 g ai/ha, 0 to 100 scale (0 no effect, 100 complete control)
[14] = 500 g ai/ha, 0 to 100 scale, 0 is no effect, 100 is complete control
[15] = Flood (flooded paddy test), 62 g ai/ha, visual rating after 13 to 15 days
[16] = Flood (flooded paddy test), 125 g ai/ha, visual rating after 13 to 15 days
[17] = Flood (flooded paddy test), 250 g ai/ha, visual rating after 13 to 15 days

Cc1nn(-c2ccc(F)cc2)nc1Oc1ccnc(OCC(F)(F)F)c1 [Compound 71]
Barnyardgrass plant response rating [1, 11]: 0
Barnyardgrass plant response rating [1, 12]: 10
Plant response rating, Barnyardgrass [1, 13]: 0
Plant response rating, Barnyardgrass [1, 14]: 0
Crabgrass, Large plant response rating [2, 11]: 10
Crabgrass, Large plant response rating [2, 12]: 10
Plant response rating, Crabgrass, Large [2, 13]: 0
Plant response rating, Crabgrass, Large [2, 14]: 10
Foxtail, Giant plant response rating [3, 11]: 10
Foxtail, Giant plant response rating [3, 12]: 10
Plant response rating, Foxtail, Giant [3, 13]: 0
Plant response rating, Foxtail, Giant [3, 14]: 0
Morningglory plant response rating [4, 11]: 10
Morningglory plant response rating [4, 12]: 10
Plant response rating, Morningglory [4, 13]: 0
Plant response rating, Morningglory [4, 14]: 0
Pigweed plant response rating [5, 11]: 10
Pigweed plant response rating [5, 12]: 40
Plant response rating, Pigweed [5, 13]: 0
Plant response rating, Pigweed [5, 14]: 0
Velvetleaf plant response rating [6, 11]: 0
Velvetleaf plant response rating [6, 12]: 10
Plant response rating, Velvetleaf [6, 13]: 0
Plant response rating, Velvetleaf [6, 14]: 0
Wheat plant response rating [7, 11]: 0
Wheat plant response rating [7, 12]: 0
Plant response rating, Wheat [7, 13]: 0
Plant response rating, Wheat [7, 14]: 0
Corn plant response rating (corn (Zea mays); [11]): 0
Corn plant response rating (corn (Zea mays); [12]): 10
Plant response rating, Corn (corn (Zea mays); [13]): 0
Plant response rating, Corn (corn (Zea mays); [14]): 0
Plant response rating, Rice (rice (Oryza sativa); [15]): 0
Plant response rating, Rice (rice (Oryza sativa); [16]): 0
Plant response rating, Rice (rice (Oryza sativa); [17]): 0
Plant response rating, Rice (rice (Oryza sativa); Flood, 31 g ai/ha): 0
Plant response rating, Sedge, Umbrella [8, 15]: 0
Plant response rating, Sedge, Umbrella [8, 16]: 0
Plant response rating, Sedge, Umbrella [8, 17]: 0
Plant response rating, Sedge, Umbrella ([8]; Flood, 31 g ai/ha): 0
Plant response rating, Ducksalad [9, 15]: 0
Plant response rating, Ducksalad [9, 16]: 0
Plant response rating, Ducksalad [9, 17]: 0
Plant response rating, Ducksalad ([9]; Flood, 31 g ai/ha): 0
Plant response rating, Barnyardgrass [10, 15]: 0
Plant response rating, Barnyardgrass [10, 16]: 0
Plant response rating, Barnyardgrass [10, 17]: 0
Plant response rating, Barnyardgrass ([10]; Flood, 31 g ai/ha): 0

Cc1nn(-c2ccc(C(F)(F)F)nc2)nc1C(=O)c1cccc(C(F)(F)F)c1 [Compound 73]
Barnyardgrass plant response rating [1, 11]: 10
Barnyardgrass plant response rating [1, 12]: 30
Plant response rating, Barnyardgrass [1, 13]: 0
Plant response rating, Barnyardgrass [1, 14]: 40
Crabgrass, Large plant response rating [2, 11]: 20
Crabgrass, Large plant response rating [2, 12]: 60
Plant response rating, Crabgrass, Large [2, 13]: 50
Plant response rating, Crabgrass, Large [2, 14]: 90
Foxtail, Giant plant response rating [3, 11]: 10
Foxtail, Giant plant response rating [3, 12]: 40
Plant response rating, Foxtail, Giant [3, 13]: 60
Plant response rating, Foxtail, Giant [3, 14]: 90
Morningglory plant response rating [4, 11]: 20
Morningglory plant response rating [4, 12]: 70
Plant response rating, Morningglory [4, 13]: 0
Plant response rating, Morningglory [4, 14]: 10
Pigweed plant response rating [5, 11]: 70
Pigweed plant response rating [5, 12]: 100
Plant response rating, Pigweed [5, 13]: 30
Plant response rating, Pigweed [5, 14]: 100
Velvetleaf plant response rating [6, 11]: 20
Velvetleaf plant response rating [6, 12]: 40
Plant response rating, Velvetleaf [6, 13]: 0
Plant response rating, Velvetleaf [6, 14]: 10
Wheat plant response rating [7, 11]: 10
Wheat plant response rating [7, 12]: 20
Plant response rating, Wheat [7, 13]: 0
Plant response rating, Wheat [7, 14]: 10
Corn plant response rating (corn (Zea mays); [11]): 10
Corn plant response rating (corn (Zea mays); [12]): 20
Plant response rating, Corn (corn (Zea mays); [13]): 0
Plant response rating, Corn (corn (Zea mays); [14]): 0
Plant response rating, Rice (rice (Oryza sativa); [15]): 0
Plant response rating, Rice (rice (Oryza sativa); [16]): 0
Plant response rating, Rice (rice (Oryza sativa); [17]): 0
Plant response rating, Rice (rice (Oryza sativa); Flood, 31 g ai/ha): 0
Plant response rating, Sedge, Umbrella [8, 15]: 0
Plant response rating, Sedge, Umbrella [8, 16]: 0
Plant response rating, Sedge, Umbrella [8, 17]: 0
Plant response rating, Sedge, Umbrella ([8]; Flood, 31 g ai/ha): 0
Plant response rating, Ducksalad [9, 15]: 0
Plant response rating, Ducksalad [9, 16]: 0
Plant response rating, Ducksalad [9, 17]: 85
Plant response rating, Ducksalad ([9]; Flood, 31 g ai/ha): 0
Plant response rating, Barnyardgrass [10, 15]: 0
Plant response rating, Barnyardgrass [10, 16]: 0
Plant response rating, Barnyardgrass [10, 17]: 0
Plant response rating, Barnyardgrass ([10]; Flood, 31 g ai/ha): 0

Source: patent US9302999B2, “Substituted triazoles as herbicides” (E. I. DU PONT DE NEMOURS AND COMPANY, priority 2012, dated 2016)
